Patent US8097643B2, “Indol-4 sulfonamide derivatives, their preparation and their use 5-ht-6 as modulators” (Laboratorios del Dr. Esteve S. A., priority 2003, dated 2012)

Legend:
[1] = biological target: T1, recombinant human 5HT6 receptor (Homo sapiens, UniProt P50406); experiment: Binding to the 5HT6 serotonin receptor ([3H]-LSD radioligand); conditions: 10^−6 M compound; [3H]-LSD 2.7 nM; HEK-293 cell membranes
T1 construct: purchased Receptor Biology; host or cells: HEK-293 cell membranes
Method: Binding to the 5Ht6 Serotonin Receptor
HEK-293 cell membranes expressing the recombinant human 5HT6 receptor were supplied by Receptor Biology. […] Incubation ends by quick filtration in a Harvester Brandel Cell through fiberglass filters of the Schleicher & Schuell GF 3362 trademark, pretreated with a 0.5% polyethyleneimine solution. […] The vials are left to equilibrate for several hours prior to their counting in a 1414 Wallac Winspectral scintillation counter. […] The assays are carried out in triplicate. The inhibition constants (Ki, nM) are calculated by non-linear regression analysis using the EBDA/LIGAND program [Munson and Rodbard, Analytical Biochemistry, 1980, 107, 220].
Binding of the new compounds of general formula (Ia and Ib and Ic) to the 5-HT6 receptor was determined as previously described.

T1 sequence (P50406 whole entry): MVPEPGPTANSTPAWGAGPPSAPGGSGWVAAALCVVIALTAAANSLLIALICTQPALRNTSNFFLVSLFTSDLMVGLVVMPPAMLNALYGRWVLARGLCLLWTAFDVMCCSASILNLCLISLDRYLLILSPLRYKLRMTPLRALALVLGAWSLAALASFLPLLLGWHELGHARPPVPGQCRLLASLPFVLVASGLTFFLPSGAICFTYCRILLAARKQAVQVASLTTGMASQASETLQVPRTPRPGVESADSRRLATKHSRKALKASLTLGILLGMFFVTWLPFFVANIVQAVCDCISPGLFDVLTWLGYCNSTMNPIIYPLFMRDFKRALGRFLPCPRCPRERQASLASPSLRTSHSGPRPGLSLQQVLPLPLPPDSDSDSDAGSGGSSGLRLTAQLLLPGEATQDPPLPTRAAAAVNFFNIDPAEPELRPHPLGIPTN

Row | melting point [°C] | Compound | % Inhibition 10^−6 M [1] [%] | inhibition at 1 µM [1] [%]
1 | 47 to 54 | CN(C)CCn1ccc2c(NS(=O)(=O)CCc3cccc4ccccc34)cccc21 [Example 5, N-[1-(2-dimethylaminoethyl)-1H-indole-4-yl]-2-(naphthalene-1-yl)-ethanesulfonamide] | – | –
2 | 78 to 80 | Cc1c(S(=O)(=O)Nc2cccc3c2ccn3CCN(C)C)sc2ccc(Cl)cc12 [Example 1, N-[1-(2-dimethylaminoethyl)-1H-indole-4-yl]-5-chloro-3-methyl-benzo[b]thiophene-2-sulfonamide] | – | –
3 | – | N-[1-(2-dimethylaminoethyl)-1H-indole-4-yl]-naphtalene-1-sulfonamide [Example 3] | 94.8 | –
4 | 137 to 140 | CN(C)CCn1ccc2c(NS(=O)(=O)c3ccc(-c4ccccc4)cc3)cccc21 [Example 4, N-[1-(2-dimethylaminoethyl)-1H-indole-4-yl]-4phenylbenzenesulfonamide] | – | –
5 | – | N-[1-(2-dimethylaminoethyl)-1H-indole-4-yl]-naphtalene-2-sulfonamide [Example 2] | 104.3 | –

Row | Compound | melting point [°C] | % Inhibition 10^−6 M [1] [%] | inhibition at 1 µM [1] [%]
6 | CN(C)CCn1ccc2c(NS(=O)(=O)c3cc(Cl)cc(Cl)c3)cccc21 [Example 7, N-[1-(2-dimethylaminoethyl)-1H-indole-4-yl]-3,5-dichlorobenzenesulfonamide] | 113 to 118 | – | 72.3
